Laboratory results as given in ChEMBL document CHEMBL3407349, “The discovery of Polo-like kinase 4 inhibitors: identification of (1R,2S).2-(3-((E).4-(((cis).2,6-dimethylmorpholino)methyl)styryl). 1H.indazol-6-yl)-5'-methoxyspiro[cyclopropane-1,3'-indolin]-2'-one (CFI-400945) as a potent, orally active antitumor agent” (J Med Chem, 2015).

How the values were obtained:
Cytochrome P450 3A4 [1] = target: T1, Cytochrome P450 3A4 (Homo sapiens, UniProt P08684); experiment: Inhibition of CYP3A4 (unknown origin) using DBF as substrate by fluorescence assay
[2] = Half life in human liver microsomes
MDA-MB-231 = experiment: Growth inhibition of human MDA-MB-231 cells after 5 days by SRB assay; format: functional
[3] = Cmax in athymic CD1 nude mouse at 25 mg/kg, po by LC/MS/MS analysis; format: ADME, organism-based; parameters: dose 25 mg/kg, route oral; settings: in vivo
[4] = AUC in athymic CD1 nude mouse at 25 mg/kg, po by LC/MS/MS analysis; format: ADME, organism-based; parameters: dose 25 mg/kg, route oral; settings: plasma
Cytochrome P450 3A4 [5] = target: T1, Cytochrome P450 3A4; experiment: Inhibition of CYP3A4 (unknown origin) using BFC as substrate by fluorescence assay
HMEC = experiment: (§1) Growth inhibition of human HMEC cells after 5 days by SRB assay; format: cell-based; settings: hmec, 120 h
Cytochrome P450 2D6 = Cytochrome P450 2D6 (Homo sapiens, UniProt P10635); experiment: Inhibition of CYP2D6 (unknown origin) by fluorescence assay; format: ADME
Cytochrome P450 1A2 = target: T2, Cytochrome P450 1A2 (Homo sapiens, UniProt P05177); experiment: Inhibition of CYP1A2 (unknown origin) by fluorescence assay; format: ADME
T2 sequence (P05177 whole entry): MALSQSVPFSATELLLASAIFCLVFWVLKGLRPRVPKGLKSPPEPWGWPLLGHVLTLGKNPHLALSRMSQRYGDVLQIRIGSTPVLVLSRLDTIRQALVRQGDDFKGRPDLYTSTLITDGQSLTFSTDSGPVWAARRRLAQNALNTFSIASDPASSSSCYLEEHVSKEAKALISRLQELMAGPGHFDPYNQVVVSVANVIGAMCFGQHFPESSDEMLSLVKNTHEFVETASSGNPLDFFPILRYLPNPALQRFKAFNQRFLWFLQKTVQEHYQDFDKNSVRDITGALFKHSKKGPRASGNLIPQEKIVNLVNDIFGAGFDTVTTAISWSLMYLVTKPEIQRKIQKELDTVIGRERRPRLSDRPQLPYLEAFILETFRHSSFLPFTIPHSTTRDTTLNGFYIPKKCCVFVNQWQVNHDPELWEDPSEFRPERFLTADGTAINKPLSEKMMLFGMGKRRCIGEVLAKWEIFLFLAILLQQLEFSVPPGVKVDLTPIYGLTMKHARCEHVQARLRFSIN

MCF7 = experiment: Growth inhibition of human MCF7 cells after 5 days by SRB assay; format: functional
MDA-MB-468 [6] = experiment: Growth inhibition of human MDA-MB-468 cells after 5 days by SRB assay; format: functional
[7] = Growth inhibition of human BT20 cells after 5 days by SRB assay; format: functional; settings: BT-20, 120 h
[8] = AUC(infinity) in Sprague-Dawley rat at 1 mg/kg, iv; format: ADME, organism-based; parameters: time infinity, dose 1 mg/kg, route intravenous; settings: plasma
A549 [9] = experiment: Antitumor activity against human A549 cells xenografted in CB-17 SCID mouse assessed as tumor growth inhibition at 3 mg/kg, po qd administered for 21 days; format: functional; settings: A549, 504 h, read-out: TGI
A549 [10] = experiment: Growth inhibition of human A549 cells after 5 days by SRB assay; format: functional; settings: A549, 120 h
MDA-MB-468 [11] = experiment: Antitumor activity against human MDA-MB-468 cells xenografted in CB-17 SCID mouse assessed as tumor growth inhibition at 9.4 mg/kg, po qd administered for 21 days; format: functional; settings: MDA-MB-468, 504 h, read-out: TGI
[12] = Toxicity in po dosed athymic CD-1 nude mouse xenografted with human HCT116 cells administered qd 1-on/3-off schedule up to day 21; format: organism-based, HCT-116; settings: CD-1 athymic nude, in vivo
[13] = Half life in beagle dog at 1 mg/kg, iv; format: ADME, organism-based, Canis lupus familiaris; parameters: dose 1 mg/kg, route intravenous; settings: in vivo
[14] = Antitumor activity against human HCT116 cells xenografted in athymic CD-1 nude mouse assessed as tumor growth inhibition at MTD, po qd administered 1-on/3-off schedule up to day 21; format: functional, HCT-116
[15] = Half life in dog liver microsomes; settings: microsomes
[16] = Oral bioavailability in Sprague-Dawley rat at 5 mg/kg; format: ADME, organism-based; settings: in vivo
[17] = Growth inhibition of human OVCAR3 cells after 5 days by SRB assay; format: functional; settings: OVCAR-3, 120 h
[18] = Oral bioavailability in beagle dog at 5 mg/kg; format: ADME, organism-based, Canis lupus familiaris; settings: in vivo
HCC1954 = experiment: Growth inhibition of human HCC1954 cells after 5 days by SRB assay; format: functional; settings: Homo sapiens, HCC1954, 120 h
[19] = Growth inhibition of human HCT116 cells after 5 days by SRB assay; format: functional; settings: HCT-116, 120 h
[20] = Antitumor activity against human SW620 cells xenografted in CB-17 SCID mouse assessed as tumor growth inhibition at 3 mg/kg, po qd administered for 21 days; format: functional; settings: SW-620, 504 h, read-out: TGI
Cytochrome P450 2C9 = Cytochrome P450 2C9 (Homo sapiens, UniProt P11712); experiment: Inhibition of CYP2C9 (unknown origin) by fluorescence assay
[21] = Half life in mouse liver microsomes; settings: microsomes
[22] = Half life in rat liver microsomes; settings: microsomes
[23] = Antitumor activity against human SW620 cells xenografted in CB-17 SCID mouse assessed as tumor growth inhibition at 9.4 mg/kg, po qd administered for 21 days; format: functional; settings: SW-620, 504 h, read-out: TGI
[24] = AUC(infinity) in beagle dog at 5 mg/kg, po; format: ADME, organism-based, Canis lupus familiaris; parameters: time infinity, dose 5 mg/kg, route oral; settings: plasma
MDA-MB-468 [25] = experiment: Antitumor activity against human MDA-MB-468 cells xenografted in CB-17 SCID mouse assessed as tumor growth inhibition at 3 mg/kg, po qd administered for 21 days; format: functional; settings: MDA-MB-468, 504 h, read-out: TGI
[26] = as §1; format: cell-based; settings: HMEC cells
[27] = AUC(infinity) in Sprague-Dawley rat at 5 mg/kg, po; format: ADME, organism-based; parameters: dose 5 mg/kg, route oral, time infinity; settings: plasma
Cytochrome P450 2C19 = Cytochrome P450 2C19 (Homo sapiens, UniProt P33261); experiment: Inhibition of CYP2C19 (unknown origin) by fluorescence assay
[28] = Growth inhibition of human CAL51 cells after 5 days by SRB assay; format: functional; settings: CAL-51, 120 h
[29] = AUC(infinity) in beagle dog at 1 mg/kg, iv; format: ADME, organism-based, Canis lupus familiaris; parameters: time infinity, dose 1 mg/kg, route intravenous; settings: plasma
Mus musculus = experiment: Toxicity in CB-17 SCID mouse xenografted with human A549 cells assessed as death at 9.4 mg/kg, po qd administered for 21 days; format: organism-based; parameters: dose 9.4 mg/kg, route oral; settings: in vivo, 504 h
[30] = Growth inhibition of human COLO205 cells after 5 days by SRB assay; format: functional; settings: COLO 205, 120 h
[31] = Half life in Sprague-Dawley rat at 1 mg/kg, iv; format: ADME, organism-based; parameters: dose 1 mg/kg, route intravenous; settings: in vivo
[32] = Growth inhibition of human SKBR3 cells after 5 days by SRB assay; format: functional; settings: SK-BR-3, 120 h
SW-620 = experiment: Growth inhibition of human SW620 cells after 5 days by SRB assay; format: functional; settings: SW-620, 120 h

T1 sequence (P08684 whole entry): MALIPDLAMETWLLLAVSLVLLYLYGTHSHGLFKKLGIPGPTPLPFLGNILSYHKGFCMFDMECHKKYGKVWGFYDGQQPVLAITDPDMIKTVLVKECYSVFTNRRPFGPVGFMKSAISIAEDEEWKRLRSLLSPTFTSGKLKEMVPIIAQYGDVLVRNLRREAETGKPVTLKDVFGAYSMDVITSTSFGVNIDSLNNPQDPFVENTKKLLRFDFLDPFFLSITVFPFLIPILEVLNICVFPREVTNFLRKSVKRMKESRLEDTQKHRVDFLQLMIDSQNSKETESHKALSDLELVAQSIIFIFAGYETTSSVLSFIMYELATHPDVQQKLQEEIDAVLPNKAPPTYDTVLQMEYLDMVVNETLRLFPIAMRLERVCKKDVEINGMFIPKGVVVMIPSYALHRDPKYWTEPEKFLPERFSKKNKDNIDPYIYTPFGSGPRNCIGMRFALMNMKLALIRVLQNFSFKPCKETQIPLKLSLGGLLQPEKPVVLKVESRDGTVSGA
Sequence of Cytochrome P450 2D6 (P10635 whole entry): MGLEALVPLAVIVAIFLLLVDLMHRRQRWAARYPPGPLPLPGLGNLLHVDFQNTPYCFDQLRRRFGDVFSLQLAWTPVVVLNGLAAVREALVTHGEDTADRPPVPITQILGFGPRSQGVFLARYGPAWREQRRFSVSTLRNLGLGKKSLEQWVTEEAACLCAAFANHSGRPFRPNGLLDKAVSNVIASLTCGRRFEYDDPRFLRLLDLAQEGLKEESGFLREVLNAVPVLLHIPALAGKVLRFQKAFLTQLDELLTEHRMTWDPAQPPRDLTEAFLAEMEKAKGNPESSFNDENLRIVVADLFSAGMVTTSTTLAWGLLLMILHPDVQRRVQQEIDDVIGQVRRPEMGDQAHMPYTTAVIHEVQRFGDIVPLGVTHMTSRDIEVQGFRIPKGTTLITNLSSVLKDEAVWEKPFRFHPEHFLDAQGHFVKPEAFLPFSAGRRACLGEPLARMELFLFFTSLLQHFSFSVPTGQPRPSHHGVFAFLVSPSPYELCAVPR
Sequence of Cytochrome P450 2C19 (P33261 whole entry): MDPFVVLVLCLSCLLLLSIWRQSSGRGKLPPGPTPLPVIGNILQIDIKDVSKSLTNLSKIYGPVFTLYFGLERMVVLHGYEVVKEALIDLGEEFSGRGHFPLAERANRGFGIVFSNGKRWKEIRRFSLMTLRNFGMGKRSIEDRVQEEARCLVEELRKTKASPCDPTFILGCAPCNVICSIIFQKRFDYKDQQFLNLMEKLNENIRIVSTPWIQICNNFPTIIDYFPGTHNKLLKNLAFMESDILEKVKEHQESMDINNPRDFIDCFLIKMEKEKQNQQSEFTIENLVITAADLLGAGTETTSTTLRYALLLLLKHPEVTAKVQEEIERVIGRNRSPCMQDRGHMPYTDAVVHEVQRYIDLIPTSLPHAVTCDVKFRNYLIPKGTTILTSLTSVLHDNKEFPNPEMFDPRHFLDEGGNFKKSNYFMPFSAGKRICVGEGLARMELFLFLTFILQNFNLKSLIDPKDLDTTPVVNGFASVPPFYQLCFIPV
Sequence of Cytochrome P450 2C9 (P11712 whole entry): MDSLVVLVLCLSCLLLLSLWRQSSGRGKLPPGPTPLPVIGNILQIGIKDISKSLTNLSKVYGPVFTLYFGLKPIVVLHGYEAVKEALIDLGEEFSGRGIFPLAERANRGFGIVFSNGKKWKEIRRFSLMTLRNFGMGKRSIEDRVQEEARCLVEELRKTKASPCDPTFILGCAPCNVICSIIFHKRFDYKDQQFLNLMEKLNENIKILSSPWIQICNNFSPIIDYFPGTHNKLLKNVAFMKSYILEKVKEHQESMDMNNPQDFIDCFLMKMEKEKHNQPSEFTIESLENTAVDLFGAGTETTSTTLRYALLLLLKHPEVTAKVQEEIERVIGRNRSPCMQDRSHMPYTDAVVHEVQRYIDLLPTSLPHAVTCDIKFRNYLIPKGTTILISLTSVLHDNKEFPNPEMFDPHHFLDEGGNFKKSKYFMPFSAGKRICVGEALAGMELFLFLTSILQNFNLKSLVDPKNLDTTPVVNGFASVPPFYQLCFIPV

CN(C)Cc1ccc(/C=C/c2n[nH]c3cc([C@@H]4C[C@@]45C(=O)Nc4ccccc45)ccc23)cc1
IC50 (Cytochrome P450 3A4 [1]): 10 µM
half-life ([2]; liver microsomes): > 60 min
GI50 (MDA-MB-231): 0.82 µM
Cmax [3]: 110 ng/mL
AUC [4]: 260 ng·h/mL
IC50 (Cytochrome P450 3A4 [5]): 5 µM
GI50 (HMEC): 19 µM
inhibition (INH) (Cytochrome P450 2D6): Not Active
inhibition (INH) (Cytochrome P450 1A2): Not Active
GI50 (MCF7): 250 nM
GI50 (MDA-MB-468 [6]): < 1 nM

COc1ccc2c(c1)[C@]1(C[C@H]1c1ccc3c(/C=C/c4ccc(CN5CCOCC5)cc4)n[nH]c3c1)C(=O)N2C
GI50 [7]: 55 nM
AUC(0-inf) [8]: 553 ng·h/mL
IC50 (Cytochrome P450 3A4 [1]): 6 µM
inhibition in vivo at 3 mg/kg (A549 [9]): 46%
GI50 (A549 [10]): 4 nM
inhibition in vivo at 9.4 mg/kg (MDA-MB-468 [11]): 96%
MTD at 21 days [12]: 39 mg/kg
half-life [13]: 180 min
TGI [14]: 90%
half-life [15]: 13 min
half-life ([2]; microsomes): 37 min
bioavailability [16]: 25%
GI50 [17]: 7 nM
bioavailability [18]: 32%
GI50 (HCC1954): < 10 nM
GI50 [19]: 5 nM
GI50 (MDA-MB-231; Homo sapiens, MDA-MB-231, 120 h): 20 µM
Cmax [3]: 5900 ng/mL
inhibition in vivo at 3 mg/kg [20]: 47%
IC50 (Cytochrome P450 2C9): 1000 nM
AUC [4]: 17000 ng·h/mL
half-life [21]: 24 min
IC50 (Cytochrome P450 3A4 [5]): 20 µM
half-life [22]: 6.4 min
inhibition in vivo at 9.4 mg/kg [23]: 77%
AUC(0-inf) [24]: 1030 ng·h/mL
inhibition in vivo at 3 mg/kg (MDA-MB-468 [25]): 61%
GI50 at 120 h [26]: > 30 µM
AUC(0-inf) [27]: 688 ng·h/mL
IC50 (Cytochrome P450 2C19): 1000 nM
GI50 [28]: 110 nM
AUC(0-inf) [29]: 648 ng·h/mL
inhibition (INH) (Cytochrome P450 2D6): Not Active
inhibition (INH) (Cytochrome P450 1A2): Not Active
Activity (Mus musculus): Toxic
GI50 [30]: 7 nM
half-life [31]: 78 min
GI50 [32]: 6.5 µM
GI50 (MCF7; Homo sapiens, MCF7, 120 h): < 10 nM
GI50 (SW-620): 600 nM
GI50 (MDA-MB-468 [6]; Homo sapiens, MDA-MB-468, 120 h): < 10 nM
